In the test the target is angiotensin converting enzyme (Homo sapiens, UniProt P12821). The experiment in a line: inhibition of the isolated angiotensin converting enzyme. The test is classed as biochemical. From the text: The following values were obtained for the inhibition of the isolated angiotensin converting enzyme: […]
Chain of angiotensin converting enzyme (P12821 30-1306, species assumed): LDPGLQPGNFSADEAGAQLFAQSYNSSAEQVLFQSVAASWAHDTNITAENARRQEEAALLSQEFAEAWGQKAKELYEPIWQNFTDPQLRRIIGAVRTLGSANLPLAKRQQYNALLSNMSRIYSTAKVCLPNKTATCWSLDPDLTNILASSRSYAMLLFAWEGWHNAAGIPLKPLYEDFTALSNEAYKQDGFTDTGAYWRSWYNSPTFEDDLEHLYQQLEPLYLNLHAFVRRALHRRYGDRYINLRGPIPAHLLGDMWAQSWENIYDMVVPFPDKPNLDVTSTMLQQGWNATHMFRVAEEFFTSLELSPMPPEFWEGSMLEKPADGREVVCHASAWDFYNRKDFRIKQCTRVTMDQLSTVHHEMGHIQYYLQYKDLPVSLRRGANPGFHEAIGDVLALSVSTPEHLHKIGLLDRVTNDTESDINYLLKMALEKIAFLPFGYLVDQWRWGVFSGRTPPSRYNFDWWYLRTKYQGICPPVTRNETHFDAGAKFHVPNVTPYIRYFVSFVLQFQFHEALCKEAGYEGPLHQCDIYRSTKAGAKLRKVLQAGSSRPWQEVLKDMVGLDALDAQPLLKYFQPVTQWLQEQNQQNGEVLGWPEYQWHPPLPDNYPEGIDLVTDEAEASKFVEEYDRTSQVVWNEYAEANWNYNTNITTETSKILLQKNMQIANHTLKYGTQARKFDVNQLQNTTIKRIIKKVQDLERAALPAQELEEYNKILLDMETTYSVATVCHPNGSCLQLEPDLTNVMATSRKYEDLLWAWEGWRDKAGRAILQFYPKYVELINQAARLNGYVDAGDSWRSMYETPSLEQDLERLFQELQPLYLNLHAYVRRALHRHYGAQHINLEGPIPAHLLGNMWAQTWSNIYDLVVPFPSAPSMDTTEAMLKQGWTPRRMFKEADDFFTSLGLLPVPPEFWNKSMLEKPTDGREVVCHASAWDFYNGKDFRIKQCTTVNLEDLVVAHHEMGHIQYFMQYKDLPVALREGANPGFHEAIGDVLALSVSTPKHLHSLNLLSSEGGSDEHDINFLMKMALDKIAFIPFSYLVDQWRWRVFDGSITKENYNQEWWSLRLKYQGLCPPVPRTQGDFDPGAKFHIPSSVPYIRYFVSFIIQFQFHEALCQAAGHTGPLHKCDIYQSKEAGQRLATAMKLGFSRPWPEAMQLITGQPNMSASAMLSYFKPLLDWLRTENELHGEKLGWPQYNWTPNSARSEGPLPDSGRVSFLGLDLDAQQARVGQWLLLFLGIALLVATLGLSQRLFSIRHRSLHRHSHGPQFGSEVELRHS
`NCCCC[C@H](N[C@@H](CCc1ccccc1)C(=O)O)C(=O)N1CCc2sccc2[C@H]1C(=O)O` [Example 2, N-[N-(1(S)-Carboxy-3-phenylpropyl)-L-lysyl]4,5,6,7-tetrahydro-thieno[3,2-c]pyridine-4(S)-carboxylic acid]: 3.5 nM corresponded to half-maximal inhibition (IC50). `NCCCC[C@H](N[C@@H](CCc1ccccc1)C(=O)O)C(=O)N1CCc2ccsc2[C@@H]1C(=O)O` [Example 4, N-[N-(1(S)-Carboxy-3-phenylpropyl)-L-lysyl]4,5,6,7-tetrahydro-thieno[2,3-c]pyridine-7(S)-carboxylic acid] had a concentration for half-maximal inhibition (IC50) of 18 nM. Turning to `NCCCC[C@H](N[C@@H](CCc1ccccc1)C(=O)O)C(=O)N1Cc2sccc2C[C@H]1C(=O)O` [Example 7, N-[N-(1(S)-Carboxy-3-phenylpropyl)-L-lysyl]-4,5,6,7-tetrahydro-thieno[2,3-c]pyridine-5(S)-carboxylic acid], the 50% inhibitory concentration (IC50) worked out at 14 nM. The same measure for `NCCCC[C@H](N[C@@H](CCc1ccccc1)C(=O)O)C(=O)N1Cc2ccsc2C[C@H]1C(=O)O` [Example 10, N-[N-(1(S)-Carboxy-3-phenylpropyl)-L-lysyl]-4,5,6,7-tetrahydro-thieno[3,2-c]pyridine-6(S)-carboxylic acid]: 2.9 nM.

The values above are taken from patent US5008273A, “Amino acid derivatives and their pharmaceutical use” (Boehringer Ingelheim GmbH, priority 1985, dated 1991).
